Experimental data from ChEMBL document CHEMBL1938379, “Capture hydrolysis signals in the microsomal stability assay: molecular mechanisms of the alkyl ester drug and prodrug metabolism” (Bioorg Med Chem Lett, 2012).

Assay: Clearance in human liver microsomes at 1 uM measured after 60 mins by HPLC analysis

| SMILES | microsomal CLint at 1 h, 1 µM (liver microsomes) | microsomal CLint at 1 h, 1 µM (microsomes) |
| --- | --- | --- |
| CCOC(=O)[C@H](CCc1ccccc1)N[C@@H](C)C(=O)N1[C@H](C(=O)O)C[C@@H]2CCC[C@@H]21 | 46.1 µL/min/mg | – |
| CCOC(=O)[C@H](CCc1ccccc1)N[C@@H](C)C(=O)N1Cc2ccccc2C[C@H]1C(=O)O | 8.5 µL/min/mg | – |
| CCOC(=O)[C@H](CCc1ccccc1)N[C@@H](C)C(=O)N1CC2(C[C@H]1C(=O)O)SCCS2 | < 8 µL/min/mg | – |
| CC1=C(C(=O)OC(C)C)C(c2cccc([N+](=O)[O-])c2)C(C(=O)OC2CN(C(c3ccccc3)c3ccccc3)C2)=C(N)N1 (centres undefined) [AZELNIDIPINE] | 33.9 µL/min/mg | – |
| CCOC(=O)[C@H](CCc1ccccc1)N[C@H]1CCc2ccccc2N(CC(=O)O)C1=O [BENAZEPRIL] | 52.5 µL/min/mg | – |
| CCOC(=O)COc1ccc2c(C)c(CCN(CC)CC)c(=O)oc2c1 [CHROMONAR] | > 300 µL/min/mg | – |
| COC(=O)[C@H](c1ccccc1Cl)N1CCc2sccc2C1 [CLOPIDOGREL] | – | > 300 µL/min/mg |
| CCOC(=O)COc1ccc2c(=O)cc(-c3ccccc3)oc2c1 [EFLOXATE] | > 300 µL/min/mg | – |
| COC(=O)[C@@H]1CC2=CC(=O)CC[C@]2(C)[C@@]23O[C@@H]2C[C@@]2(C)[C@@H](CC[C@@]24CCC(=O)O4)[C@H]13 [EPLERENONE] | 7.9 µL/min/mg | – |
| CCOC(=O)C1(c2ccccc2)CCCN(C)CC1 (centres undefined) [ETHOHEPTAZINE] | 22.6 µL/min/mg | – |
| CCOC(=O)/C=C1\SC(N2CCCCC2)C(=O)N1C (centres undefined) [ETOZOLIN] | 20.5 µL/min/mg | – |
| CCOC(=O)c1ncn2c1CN(C)C(=O)c1cc(F)ccc1-2 [FLUMAZENIL] | 10.6 µL/min/mg | – |
| COC(=O)C1=C(C)NC(C)=C(C(=O)OC(C)C)C1c1cccc2nonc12 (centres undefined) [ISRADIPINE] | > 300 µL/min/mg | – |
| CCOC(=O)C1=C(C)NC(C)=C(C(=O)OCC)C1c1ccccc1/C=C/C(=O)OC(C)(C)C [LACIDIPINE] | 99.2 µL/min/mg | – |
| COC(=O)C1=C(C)NC(C)=C(C(=O)OC(C)(C)CN(C)CCC(c2ccccc2)c2ccccc2)C1c1cccc([N+](=O)[O-])c1 (centres undefined) [LERCANIDIPINE] | 125 µL/min/mg | – |
| COC(=O)C1=C(C)NC(C)=C(C(=O)OCCN2CCN(C(c3ccccc3)c3ccccc3)CC2)C1c1cccc([N+](=O)[O-])c1 (centres undefined) [MANIDIPINE 6300] | 93.4 µL/min/mg | – |
| COC(=O)C(c1ccccc1)C1CCCCN1 (centres undefined) [METHYLPHENIDATE] | 11.1 µL/min/mg | – |
| CCOC(=O)[C@H](CCc1ccccc1)N[C@@H](C)C(=O)N1Cc2cc(OC)c(OC)cc2C[C@H]1C(=O)O [MOEXIPRIL] | < 8 µL/min/mg | – |
| COC(=O)C1=C(C#N)NC(C)=C(C(=O)OC(C)C)C1c1cccc([N+](=O)[O-])c1 (centres undefined) [NILVADIPINE] | 205 µL/min/mg | – |
| COCCOC(=O)C1=C(C)NC(C)=C(C(=O)OC(C)C)C1c1cccc([N+](=O)[O-])c1 (centres undefined) [NIMODIPINE] | > 300 µL/min/mg | – |
| COC(=O)C1=C(C)NC(C)=C(C(=O)OCC(C)C)C1c1ccccc1[N+](=O)[O-] (centres undefined) [NISOLDIPINE] | > 300 µL/min/mg | – |
| CCOC(=O)C1=C(C)NC(C)=C(C(=O)OC)C1c1cccc([N+](=O)[O-])c1 (centres undefined) [NITRENDIPINE] | 166 µL/min/mg | – |
| CCC[C@H](N[C@@H](C)C(=O)N1[C@H](C(=O)O)C[C@@H]2CCCC[C@@H]21)C(=O)OCC [PERINDOPRIL] | 10.7 µL/min/mg | – |
| COC(=O)[C@H]1[C@H]2C[C@@H]3c4[nH]c5cc(OC)ccc5c4CCN3C[C@H]2C[C@@H](OC(=O)c2cc(OC)c(OC)c(OC)c2)[C@@H]1OC [RESERPINE] | 18.3 µL/min/mg | – |
| CCOC(=O)[C@H](CCc1ccccc1)N[C@H]1CS[C@H](c2cccs2)CN(CC(=O)O)C1=O [TEMOCAPRIL] | 133 µL/min/mg | – |
| CCOC(=O)c1c(N)sc2c1CCN(Cc1ccccc1)C2 [TINORIDINE] | 71.2 µL/min/mg | – |
| CC[C@]12CCCN3CCc4c(n(c5ccccc45)[C@@](O)(C(=O)OC)C1)[C@@H]32 [VINCAMINE] | 66 µL/min/mg | – |
| C#C[C@H](CC(=O)OCC)NC(=O)CCC(=O)Nc1ccc(C(=N)N)cc1 [XEMILOFIBAN] | < 8 µL/min/mg | – |
| COC(=O)[C@@H]1[C@H]2C[C@H]3c4[nH]c5ccccc5c4CCN3C[C@@H]2CC[C@@H]1O [YOHIMBINE] | 34.4 µL/min/mg | – |
